Laboratory results taken from US20160166543A1 (priority 2014, published 2016).
Values after ≈ are worked out from the molar mass of the structure shown. Read-outs that look alike come from different tables or passages of the source.

Tests used:
physchem = assay type: physicochemical
Procedure: There are different types of cyclodextrins available. For the purpose of this patent application, the cyclodextrin can be one or more the following—alpha cyclodextrin (alpha CD), beta cyclodextrin (beta CD), gamma cyclodextrin (gamma CD), hydroxypropyl beta cyclodextrin (HPBCD), sulfobutyl ether beta cyclodextrin (SBEBCD), and randomly methylated beta cyclodextrin. […] The concentration of cyclodextrin in the samples ranged from 0 mg/mL to 12.5 mg/mL.

[1] = older adults, cited from earlier work
[2] = rat, in vivo, po; cited from earlier work
[3] = in vivo, cited from earlier work
[4] = humans; cited from earlier work

Structure (SMILES) | increase of solubility in water (physchem) [%] | saturation solubility in water (physchem) [mg/mL] | solubility (physchem; water, thermodynamic from solid, saturation solubility in water) [µg/mL] | Tmax ([1]; high dose (>2 mg)) [h] | Tmax ([1]; low dose (<0.5 mg)) [h] | LD50 [2] | apparent oral clearance ([3]; po) [mL/min] | elimination half-life [3] [h] | mean Cmax (maximum blood concentration) [3] [ng/mL] | median lethal dose [4] [mg/kg]
COc1ccc2[nH]cc(CCNC(C)=O)c2c1 [Melatonin] | ~60 | 1.75 | ~1750 (≈ 7.53 mM) | 1.5 | 1.3 | over 3200 mg/kg | – | – | – | –
CN(C)CCOC(C)(c1ccccc1)c1ccccn1 (stereo not shown) [Doxylamine succinate] | – | – | – | – | – | – | 217 | 10.1 | 99 | 50 to 500
